Measurements: patent EP3964497A1, “SUBSTITUTED VICINAL DIAMINE COMPOUNDS AND THEIR USE IN THE TREATMENT, AMELIORATION OR PREVENTION OF PAIN” (priority 2020, dated 2022)
Where two headings read alike, the source gives them in different places.

What was measured:
µOR [1] = target: T1, µOR (Homo sapiens, UniProt P35372); experiment: competitive radioligand binding with [3H]diprenorphine, membranes of transfected HEK 293T cells; design: expressed in transfected cells; host or cells: HEK 293T cells, transient transfection, membrane preparation
Method: (§1) To verify the subtype selectivity of the described compounds for µOR over δOP and κOR, respectively, the binding affinities of the described examples to the different human opioid receptors in an in-vitro test system were measured.
(§2) For the determination of receptor binding affinity competitive radioligand binding experiments were performed as described in literature (H. Huebner, C. Haubmann, W. Utz, P. Gmeiner, J. Med. Chem., 2000, 43, 756-762). In brief, HEK 293T cells were transiently transfected with the cDNAs coding for the human opioid receptor subtypes µOR, δOR, and kOR, respectively, using a solution of polyethylenimine in PBS (PEI, linear, 25 kDa, Polysciences) as transfection reagent at a 3:1 PEI to cDNA ratio (I. Fish, A. Stoessel, K. Eitel, C. Valant, S. Albold, H. Huebner, D. Moeller, M.J. Clark, R.K. Sunahara, A. Christopoulos, B.K. Shoichet, P. Gmeiner, J. Med. Chem., 2017, 60, 9239-9250). After preparation of membranes, radioligand displacement assays were run in 96-well format at a final volume of 200 µL in binding buffer (50 mM Tris-HCI, 1 mM EDTA, 5 mM MgCl2, 100 µg/mL bacitracin, 5 µg/mL soybean trypsin inhibitor, pH 7.4) with the radioligand [^3H]diprenorphine (specific activity = 31 Ci/mmol) at a final concentration of 0.20-0.30 nM. […] Unspecific binding was determined in the presence of 10 µM of the naloxone. Protein concentrations were determined employing the method of Lowry with bovine serum albumin as standard (O.H. Lowry, N.J. Rosebrough, A.L. Farr, R.J. Randall, J. Biol. Chem., 1951, 193, 265-275). The resulting competition curves of the receptor binding experiments were analyzed by nonlinear regression. The data were initially fit using a sigmoid model to provide IC50 values, which were subsequently transformed to Ki values according to the equation of Cheng and Prusoff (Y.-C. Cheng, W. H. Prusoff, Biochem. Pharmacol., 1973, 22, 3099-3108). Three to seven experiments per compound were performed, with each concentration in triplicate.

κOR = target: T2, κOR (Homo sapiens, UniProt P41145); experiment: as above
T2 construct: expressed in transfected cells; host or cells: HEK 293T cells, transient transfection, membrane preparation
Method: as §1
After preparation of membranes, radioligand displacement assays were run in 96-well format at a final volume of 200 µL in binding buffer (50 mM Tris-HCI, 1 mM EDTA, 5 mM MgCl2, 100 µg/mL bacitracin, 5 µg/mL soybean trypsin inhibitor, pH 7.4) with the radioligand [^3H]diprenorphine (specific activity = 31 Ci/mmol) at a final concentration of 0.20-0.30 nM. […] Unspecific binding was determined in the presence of 10 µM of the naloxone. […] The resulting competition curves of the receptor binding experiments were analyzed by nonlinear regression. […] Three to seven experiments per compound were performed, with each concentration in triplicate.

δOR = target: T3, δOR (Homo sapiens, UniProt P41143); experiment: as above
T3 construct: expressed in transfected cells; host or cells: HEK 293T cells, transient transfection, membrane preparation
Method: as §1, §2

µOR [2] = target: T1, µOR; experiment: β-arrestin-2 recruitment, enzyme-fragment complementation assay in HEK-293 cells; format: cell-based; design: expressed in transfected cells; host or cells: HEK-293 cells stably expressing EA-tagged β-arrestin-2, transiently transfected with µOR-PK1; conditions: for Emax: HEK293, relative to the full effect of reference agonist DAMGO [=100%]; for β-arrestin recruitment EC50: mean of 3-8 tests, 90 min incubation, CBA = could not be analyzed (no dose-response curve)
Method: (§3) Functionally selective drugs, which are biased towards Gi protein activation over β-arrestin signaling at the µOR are indicated to show an improved side effect profile. Thus, the characterization of the functional properties of the described examples at the µOR were performed by determination of the ligand stimulated G-protein related signaling and β-arrestin recruitment applying cell based in-vitro test systems. Full and partial agonists as well as antagonists for G protein related signaling were identified.
Measurement of β-arrestin-2 recruitment was done applying an enzyme-fragment complementation assay as described previously (C. Gentzsch, K. Seier, A. Drakopoulos, M.-L. Jobin, Y. Lanoiselee, Z. Koszegi, D. Maurel, R. Sounier, H. Huebner, P. Gmeiner, S. Granier, D. Calebiro, M. Decker. Ang. Chem. Int. Ed. 2020, 59, 2-9. J. Hellmann, M. Drabek, J. Yin, J. Gunera, T. Proell, F. Kraus, C.J. Langmead, H. Huebner, D. Weikert, P. Kolb, D.M. Rosenbaum, P. Gmeiner. PNAS 2020, 117, 18059-18067). In brief, HEK-293 cells stably expressing the enzyme acceptor (EA) tagged β-arrestin-2 fusion protein were transiently co-transfected with the ProLink tagged µOR-PK1 After 24 h cells were transferred into 384-well microplates and cultured for further 24 h. To start arrestin recruitment compounds were added to the cells to get a final concentration in a range of 10 pM to 100 µM. After incubation for 90 min reaction was stopped by addition of detection mix. Chemiluminescence was determined in duplicates (3-8 individual experiments for each compound in comparison to the reference agonist DAMGO). Data analysis was done as described above.
(§4) In the above table, the numbers indicate mean EC50 values in nM and Emax values relative to the full effect of reference agonist DAMGO [=100%], respectively and are derived from 3-9 individual experiments for G-protein signaling and 3-8 tests for arrestin recruitment. ND = not determined.

µOR [3] = target: T1, µOR; experiment: G-protein mediated signaling, IP1 accumulation assay (HTRF) in HEK-293T cells with hybrid G-protein Gαqi; format: cell-based; design: expressed in transfected cells; host or cells: HEK-293T cells, transient transfection; conditions: for Emax: HEK-293T, read-out: G-protein signaling Emax; for G-protein signaling EC50: mean of 3-9 experiments, 180 min at 37 °C, CBA = could not be analyzed (no dose-response curve)
Method: as §3
The determination of G-protein stimulated µOR activation was measured applying an IP1 accumulation assay as described previously (J. Kruell, S.K. Fehler, L. Hofmann, N. Nebel, S. Maschauer, O. Prante, P. Gmeiner, H. Lanig, H. Huebner, M.R. Heinrich. ChemMedChem 2020, 15, 1175-1186. C. Gentzsch, K. Seier, A. Drakopoulos, M.-L. Jobin, Y. Lanoiselee, Z. Koszegi, D. Maurel, R. Sounier, H. Huebner, P. Gmeiner, S. Granier, D. Calebiro, M. Decker. Ang. Chem. Int. Ed. 2020, 59, 2-9). In brief, HEK-293T cells were grown to confluence of approximately 70% and transiently transfected with the cDNA of the human µOR receptor and the hybrid G-protein Gαqi. After one day cells were seeded into 384-well microplates. For testing cells were incubated with test compounds (final range of concentration from 1 pM up to 10 µM) for 180 min at 37 °C followed by addition of detection reagents. Time resolved fluorescence resonance energy transfer (HTRF) was determined using a microplate reader. Each compound was tested in duplicates in 3-9 individual experiments in comparison to the reference compound DAMGO. The resulting dose response curves were analyzed by nonlinear regression using the algorithms in PRISM 6.0 (GraphPad software, San Diego, CA), fitted with a sigmoid model and normalized to basal activity (0 %) and the maximal effect caused by the reference full agonist DAMGO (100 %).
as §4

[4] = radioligand [3H]diprenorphine, number in brackets = number of experiments, read-out: mean Ki value κOR
[5] = radioligand [3H]diprenorphine, number in brackets = number of experiments, read-out: mean Ki value δOR

| SMILES | Ki (µOR [1]) [nM] | Ki (κOR) [nM] | Ki (δOR) [nM] | Emax (µOR [2]) [%] | β-arrestin recruitment EC50 (µOR [2]) | Ki (κOR; [4]) [nM] | EC50 (µOR [3]) [nM] | Emax (µOR [3]) [%] | binding to δOR (in words) (δOR; statement in text referring to the radioligand binding table) | Ki (δOR; [5]) [nM] | G-protein signaling EC50 (µOR [3]) |
| --- | --- | --- | --- | --- | --- | --- | --- | --- | --- | --- | --- |
| CN(C)[C@H](COC(=O)C=Cc1ccccc1)Cc1ccc(O)cc1 (stereo in doubt) [Comparative Example 2, (S)-2-(Dimethylamino)-3-(4-hydroxyphenyl)propyl cinnamate, reference compound] | 230 | 320 | 860 | – | – | – | – | – | – | – | – |
| CN(C)[C@H](CNC(=O)C=Cc1ccccc1)Cc1ccc(O)cc1 (stereo in doubt) [Example 1, (S)-N-(2-(Dimethylamino)-3-(4-hydroxyphenyl)propyl)cinnamamide] | 13 | – | 25 | < 5 | CBA | 120 | 7 | 63 | high affinity | – | – |
| CN(C)[C@](C)(CNC(=O)C=Cc1ccccc1)Cc1ccc(O)cc1 (stereo in doubt) [Example 5, (S)-N-(2-(Dimethylamino)-3-(4-hydroxyphenyl)-2-methylpropyl)cinnamamide] | 310 | 970 | 1300 | – | – | – | – | – | – | – | – |
| CN(C)[C@H](COC(=O)NCCc1ccsc1)Cc1ccc(O)cc1 [Comparative Example 1, (S)-2-(Dimethylamino)-3-(4-hydroxyphenyl)propyl (2-(thiophen-3-yl)ethyl)carbamate formiate, reference compound] | 2400 | 3300 | 3000 | – | – | – | – | – | – | – | – |
| CN(C)[C@H](CNC(=O)/N=N/c1ccccc1)Cc1ccc(O)cc1 [Comparative Example 3, (S,E)-N-(2-(Dimethylamino)-3-(4-hydroxyphenyl)propyl)-2-phenyldiazene-1-carboxamide formiate, reference compound] | 66 | 540 | 630 | – | – | – | – | – | – | – | – |
| CN(C)[C@H](CNC(=O)C#Cc1ccccc1)Cc1ccc(O)cc1 [Example 2, (S)-N-(2-(Dimethylamino)-3-(4-hydroxyphenyl)propyl)-3-phenylpropiolamide] | 18 | – | – | < 5 | CBA | 230 | 22 | 42 | – | 140 | – |
| CN(C)[C@H](CNC(=O)/C=C/c1cccc2ccccc12)Cc1ccc(O)cc1 [Example 6, (S,E)-N-(2-(Dimethylamino)-3-(4-hydroxyphenyl)propyl)-3-(naphthalen-1-yl)acrylamide] | – | 180 | – | < 5 | CBA | – | 20 | – | – | – | – |
| Cc1cc(O)cc(C)c1C[C@H](N)CNC(=O)/C=C/c1cccc(C(F)(F)F)c1 [Example 11, (S,E)-N-(2-Amino-3-(4-hydroxy-2,6-dimethylphenyl)propyl)-3-(3-(trifluoromethyl)phenyl)acrylamide formiate] | 19 | 220 | 360 | – | – | – | – | < 5 | – | – | CBA |
| CN[C@H](CNC(=O)/C=C/c1cccc(C(F)(F)F)c1)Cc1c(C)cc(O)cc1C [Example 12, (S,E)-N-(3-(4-Hydroxy-2,6-dimethylphenyl)-2-(methylamino)propyl)-3-(3-(trifluoromethyl)phenyl)acrylamide formiate] | 12 | 310 | 310 | – | – | – | – | < 5 | – | – | CBA |
| Cc1cccc(/C=C/C(=O)NC[C@H](Cc2ccc(O)cc2)N(C)C)c1 [Example 13, (S,E)-N-(2-(Dimethylamino)-3-(4-hydroxyphenyl)propyl)-3-(m-tolyl)acrylamide] | 26 | – | – | – | – | 500 | 41 | 78 | – | 300 | – |
| CN(C)[C@H](CNC(=O)/C=C/c1ccc(F)c(C(F)(F)F)c1)Cc1ccc(O)cc1 [Example 16, (S,E)-N-(2-(Dimethylamino)-3-(4-hydroxyphenyl)propyl)-3-(4-fluoro-3-(trifluoromethyl)phenyl)acrylamide formiate] | 23 | 600 | 250 | – | – | – | 40 | 102 | – | – | – |
